Where two headings read alike, the source gives them in different places. Marks after values point to notes of the source that are not given here.
Key:
[1] = test system: geonol earthy/moss odor perception; assay: Human sensory performance of test compounds with and without geonol; format: in vivo; settings: for % Earthy/Moss Odor: Test Compound Only
Excerpt: Sensory Evaluation: Five 16 oz glass jars containing either REF (geonol only), geonol only control, antagonist only, mixture of geonol and isointense antagonist, or mixture of geonol and low intensity antagonist were presented to the panelists (last four samples were randomized across panelists). The panelists were asked to familiarize themselves with the earthy/moss odor quality from the REF jar first, then rate the pleasantness, earthy/moss odor intensity and overall odor intensity of the next four samples on a 0-10 linear scale. The inter-stimulus interval between the samples was two minutes to avoid adaptation. […]
The results are shown in Tables 16 and 17, and FIGS. 3 to 5.

[2] = test system: 1-octen-3-ol mushroom/earthy/fungal odor perception; assay: Human sensory performance of test compounds with and without 1-octen-3-ol; format: in vivo; settings: for % Mushroom/Earthy/Fungal Odor: Test Compound Only
[3] = test system: geonol malodor (earthy/moss odor) perception; assay: Sensory evaluation of geonol earthy/moss odor in iso-intense binary mixtures (glass jars); format: in vivo, human; settings: iso-intense binary mixture
Excerpt: Sensory Evaluation: Five 16 oz glass jars containing either REF (geonol only), geonol only control, antagonist only, mixture of geonol and isointense antagonist, or mixture of geonol and low intensity antagonist were presented to the panelists (last four samples were randomized across panelists). The panelists were asked to familiarize themselves with the earthy/moss odor quality from the REF jar first, then rate the pleasantness, earthy/moss odor intensity and overall odor intensity of the next four samples on a 0-10 linear scale. The inter-stimulus interval between the samples was two minutes to avoid adaptation.

[4] = test system: OR2W1 or the OR1A1 olfactory receptor; assay: 1-octen-3-ol olfactory receptor antagonist cell-based dose-response vs 1-octen-3-ol EC80; settings: for IC50: 1-octen-3-ol at EC80; for % Inhibition: maximum inhibition normalized to baseline agonist activity
Excerpt: Each cell line was screened with a volatile compound library for their inhibitory properties and potential 1-octen-3-ol smell inhibition.
Single concentration monitoring of the 1-octen-3-ol induced cell activity in the presence or absence of a test compound allowed for the identification of compounds with a putative suppression or inhibitory effect.

[5] = test system: geonol receptors Olfr339, Olfr1487, Olfr1A1, OR11A1, Olfr96; assay: Antagonists of geonol receptors (Example 11); format: cell-based, mouse and human; set-up: Inhibition(%): concentration or dose not given beside the values; settings: Table 18
[6] = biological target: Olfr741 (Mus musculus, UniProt L7N1Y5); assay: Indole antagonist dose-response, cAMP HTRF in HEK293T, vs indole EC80; format: cell-based; settings: Table 22, first listing
Method: (§1) Using a cell-based assay, mouse receptor Olfr738, Olfr739, Olfr740, Olfr741, 0fr742, Olfr743, Olfr744, Olfr746, Olfr748 and Olfr749 were tested in an HEK293T cell line wherein the endogenous RTP1 gene has been activated and the odorant receptor chaperone was expressed (described in WO2016201153A1). The receptor genes were tagged with a Flag-Rho tag combination. Receptor genes were co-transfected with the canonical olfactory human G-protein alpha subunit Golf gene. Co-expression of the human Golf activates the Gs transduction pathway that leads to an internal cAMP increase upon binding to the appropriate ligand (indole here). Odorant-induced activity was detected by measuring the cAMP increase in the cytosol using an HTRF based kit (CisBio, cAMP dynamic 2 kit, cat. 62AM4PEJ).

[7] = biological target: Olfr740 (Mus musculus, UniProt E9PV79); assay: as above; format: cell-based; settings: for Emax: HEK-293T, read-out: Olfr740 % Inhibition
Method: as §1

[8] = biological target: Olfr742 (Mus musculus, UniProt A2RTP5); assay: as above; format: cell-based; settings: for Emax: HEK-293T, read-out: Olfr742 % Inhibition
Method: as §1

[9] = biological target: Olfr738 (Mus musculus, UniProt L7N1X7); assay: as above; format: cell-based; settings: for Olfr738 % Inhibition: Table 22, first listing
Method: as §1

[10] = test system: OR11A1, or the OR2M3 olfactory receptor; assay: Geonol olfactory receptor antagonist cell-based screening, inhibitory dose-response vs geonol EC80; set-up: species or system human; settings: geonol at EC80; for IC50: read-out: IC50
[11] = biological target: T1, OR51E1 olfactory receptor (Homo sapiens, UniProt Q8TCB6); assay: Butyric acid olfactory receptor antagonist cell-based dose-response vs butyric acid EC80; settings: butyric acid at EC80; Table 5
T1 construct: expressed in transfected cells
T1 sequence (Q8TCB6 1-318): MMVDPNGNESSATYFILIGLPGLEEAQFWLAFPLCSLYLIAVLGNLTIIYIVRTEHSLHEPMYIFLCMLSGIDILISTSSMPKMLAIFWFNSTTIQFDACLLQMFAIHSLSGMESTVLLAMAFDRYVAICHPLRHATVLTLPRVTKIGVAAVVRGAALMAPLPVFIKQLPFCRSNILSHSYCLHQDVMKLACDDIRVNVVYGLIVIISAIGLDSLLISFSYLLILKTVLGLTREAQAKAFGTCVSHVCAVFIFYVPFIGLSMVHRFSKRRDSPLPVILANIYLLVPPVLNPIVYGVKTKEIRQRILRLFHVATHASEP

[12] = test system: 1-octen-3-ol receptors OR2W1, Olfr93, Olfr120, Olfr398; assay: Antagonists of 1-octen-3-ol receptors (Example 11); format: cell-based, mouse and human; set-up: Inhibition(%): concentration or dose not given beside the values; settings: Table 19
[13] = Low Dilution Test Compound + Geonol (0.1%)
[14] = Medium Dilution Test Compound + Geonol (0.1%)
[15] = Table 22, first listing, vs indole EC80
[16] = Table 22, first listing (r7-r45), vs indole EC80, read-out: Olfr740 IC50
[17] = Table 22, first listing (r7-r45), vs indole EC80, read-out: Olfr742 IC50

Chain of Olfr742 (A2RTP5 entry or part of it): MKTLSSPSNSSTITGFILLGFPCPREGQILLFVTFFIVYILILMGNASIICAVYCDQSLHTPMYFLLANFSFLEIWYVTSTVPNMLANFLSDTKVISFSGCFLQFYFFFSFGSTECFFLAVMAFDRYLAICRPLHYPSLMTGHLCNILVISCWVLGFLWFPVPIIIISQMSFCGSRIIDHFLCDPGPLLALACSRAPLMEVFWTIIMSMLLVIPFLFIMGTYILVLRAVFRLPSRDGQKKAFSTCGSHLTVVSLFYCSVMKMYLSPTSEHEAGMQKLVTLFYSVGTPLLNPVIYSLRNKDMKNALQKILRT
Chain of Olfr738 (L7N1X7 entry or part of it): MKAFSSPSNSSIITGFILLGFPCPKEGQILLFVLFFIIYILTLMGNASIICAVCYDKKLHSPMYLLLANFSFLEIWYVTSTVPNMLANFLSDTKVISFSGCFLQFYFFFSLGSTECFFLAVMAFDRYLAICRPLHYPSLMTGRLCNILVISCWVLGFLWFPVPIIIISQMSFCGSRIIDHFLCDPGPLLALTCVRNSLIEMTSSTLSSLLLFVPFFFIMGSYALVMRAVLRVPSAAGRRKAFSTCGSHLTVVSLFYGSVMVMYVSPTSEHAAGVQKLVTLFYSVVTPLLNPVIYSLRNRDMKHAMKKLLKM
Chain of Olfr740 (E9PV79 entry or part of it): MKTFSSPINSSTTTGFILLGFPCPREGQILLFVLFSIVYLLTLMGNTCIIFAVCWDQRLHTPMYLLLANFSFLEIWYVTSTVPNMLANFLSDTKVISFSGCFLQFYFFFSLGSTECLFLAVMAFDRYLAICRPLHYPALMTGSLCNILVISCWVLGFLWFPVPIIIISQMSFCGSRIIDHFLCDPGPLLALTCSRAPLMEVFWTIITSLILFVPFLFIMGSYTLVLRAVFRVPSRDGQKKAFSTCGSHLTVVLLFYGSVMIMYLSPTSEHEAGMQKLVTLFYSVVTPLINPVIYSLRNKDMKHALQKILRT
Chain of Olfr741 (L7N1Y5 entry or part of it): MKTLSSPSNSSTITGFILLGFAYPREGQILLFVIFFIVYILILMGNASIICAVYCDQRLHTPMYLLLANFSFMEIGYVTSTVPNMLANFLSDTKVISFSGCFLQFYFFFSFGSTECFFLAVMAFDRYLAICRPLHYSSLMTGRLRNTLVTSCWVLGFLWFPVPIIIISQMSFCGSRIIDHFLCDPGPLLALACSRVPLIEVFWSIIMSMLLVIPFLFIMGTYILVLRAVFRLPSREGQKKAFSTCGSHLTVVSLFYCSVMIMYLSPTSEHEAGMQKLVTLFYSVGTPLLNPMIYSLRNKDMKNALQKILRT

3-methyl-4-(2,6,6-trimethylcyclohex-2-en-1-yl)but-3-en-2-one; 1-(2,6,6-trimethylcyclohex-2-en-1-yl)pent-1-en-3-one
% Earthy/Moss Odor Remaining [1, 13]: 75.80%
% Earthy/Moss Odor Remaining [1, 14]: 56.20%
% Earthy/Moss Odor [1]: 29.40%
% Mushroom/Earthy/Fungal Odor Remaining ([2]; Low Dilution Test Compound + 1-octen-3-ol (0.15%)): 75.80%
% Mushroom/Earthy/Fungal Odor Remaining ([2]; Medium Dilution Test Compound + 1-octen-3-ol (0.15%)): 53.50%
% Mushroom/Earthy/Fungal Odor [2]: 20.00%
% Remaining in human sensory tests [3]: 38* %

CC1C(C)(C)C2=C(C(=O)CCC2)C1(C)C (stereo not drawn) [1,1,2,3,3-pentamethyl-2,5,6,7-tetrahydroinden-4-one]
% Mushroom/Earthy/Fungal Odor [2]: 25.90%
IC50 [4]: 51.2 µM
% Inhibition [4]: 118.44%
IC50 [5]: 268 µM
Inhibition(%) [5]: 71%
IC50 [6]: 2560 µM
Olfr741 % Inhibition [6]: 140.61%
Emax [7, 15]: 217%
IC50 [7, 16]: 12 µM
Emax [8, 15]: 120%
IC50 [8, 17]: 249 µM
IC50 ([9]; Table 22, first listing (r7-r45), vs indole EC80, read-out: Olfr738 IC50): 21.3 µM
Olfr738 % Inhibition ([9]; vs indole EC80): 61.33%

CC=CC(=O)C1C(C)C=CCC1(C)C (stereo not drawn) [1-(2,6,6-trimethyl-1-cyclohex-3-enyl)but-2-en-1-one]
% Earthy/Moss Odor [1]: 31.80%
% Mushroom/Earthy/Fungal Odor [2]: 24.00%
% Inhibition [10]: 10%
IC50 [10]: 301 µM
IC50 [11]: 210 µM
% Remaining in human sensory tests [3]: 66* %

CC1CC(C)(c2ccccc2)CO1 (stereo not drawn) [2,4-dimethyl-4-phenyloxolane]
Emax [7, 15]: 100%
IC50 [7, 16]: 51.2 µM

CC1=CC(C)C(C=O)CC1 (stereo not drawn) [2,4-dimethylcyclohex-3-enecarbaldehyde]
IC50 [4]: 18.8 µM
% Inhibition [4]: 107.99%
% Remaining in human sensory tests [3]: 45* %

Cc1ccc(CC(C)C=O)cc1 (stereo not drawn) [2-methyl-3-(4-methylphenyl) propanal]
Emax [8, 15]: 37.2%
IC50 [8, 17]: 88.2 µM

CC(C)(C)c1ccccc1O [2-tertbutyl phenol]
% Earthy/Moss Odor [1]: 41.30%
IC50 [4]: 37 µM
% Inhibition [4]: 100.34%
% Inhibition [10]: 100%
IC50 [10]: 88 µM
% Remaining in human sensory tests [3]: 46* %

CC(C)=CCCC(C)=CC=O [3,7-dimethylocta-2,6-dienal]
% Earthy/Moss Odor [1]: 27.60%
% Mushroom/Earthy/Fungal Odor [2]: 22.30%
% Remaining in human sensory tests [3]: 42* %

CC(CC=O)CCc1ccccc1 (stereo not drawn) [3-methyl-5-phenylpentanal]
Emax [7, 15]: 110%
IC50 [7, 16]: 16.1 µM

CC(CC=O)c1ccccc1 (stereo not drawn) [3-phenylbutanal]
Emax [8, 15]: 113%
IC50 [8, 17]: 44.8 µM

CC(=O)C=CC1=C(C)CCCC1(C)C [4-(2,6,6-trimethylcyclohexen-1-yl)but-3-en-2-one]
% Earthy/Moss Odor [1]: 41.80%
IC50 [5]: 289 µM
Inhibition(%) [5]: 51%
IC50 [12]: 269 µM
Inhibition(%) [12]: 66%
% Remaining in human sensory tests [3]: 43* %

CCCCCCc1ccc(C)nc1 [5-hexyl-2-methylpyridine 10% Citr, 5-hexyl-2-methylpyridine]
% Earthy/Moss Odor [1]: 46.40%
IC50 [10]: 555 µM
% Remaining in human sensory tests [3]: 37%

CC(=O)CCC=C(C)CCC=C(C)C [6,10-dimethylundeca-5,9-dien-2-one]
% Earthy/Moss Odor [1]: 52.80%
% Inhibition [10]: 50%
IC50 [10]: 133 µM
% Remaining in human sensory tests [3]: 45* %

CC(CC=O)CCCC(C)(C)O (stereo not drawn) [7-hydroxy-3,7-dimethyloctanal]
% Remaining in human sensory tests [3]: 39* %

CC(=O)OC(c1ccccc1)C(Cl)(Cl)Cl (stereo not drawn) [(2,2,2-trichloro-1-phenylethyl) acetate]
% Earthy/Moss Odor [1]: 38.60%
% Mushroom/Earthy/Fungal Odor [2]: 30.00%
% Remaining in human sensory tests [3]: 61%

Cc1ccc2c(c1)CC(C)(CO)C2 (stereo not drawn) [(2,5-dimethyl-1,3-dihydroinden-2-yl)methanol]
% Earthy/Moss Odor [1]: 41.70%
% Mushroom/Earthy/Fungal Odor [2]: 36.30%
% Remaining in human sensory tests [3]: 37* %

CCCCCOC(=O)Cc1ccccc1 [Amyl Phenylacetate]
IC50 [7]: 40.4 µM
Emax [7]: 61%
IC50 [8]: 141 µM
Emax [8]: 18%
IC50 [9]: 82.7 µM
Olfr738 % Inhibition ([9]; vs indole EC80): 18.44%

CC=Cc1ccc(OCC)c(O)c1 [Compound 2-ethoxy-5-prop-1-enylphenol, 2-ethoxy-5-prop-1-enylphenol]
% Earthy/Moss Odor [1]: 27.10%
% Mushroom/Earthy/Fungal Odor [2]: 23.20%
% Inhibition [10]: 33%
IC50 [10]: 111 µM
% Remaining in human sensory tests [3]: 34* %

CCCCCC1CCCC1=O (stereo not drawn) [Compound 2-pentylcyclopentan-1-one, 2-pentylcyclopentan-1-one]
% Earthy/Moss Odor [1]: 40.90%
% Remaining in human sensory tests [3]: 78%

CC(C)Cc1ccc2ccccc2n1 [isobutylquinoline, 2-ISOBUTYLQUINOLINE]
% Earthy/Moss Odor [1]: 37.80%
% Mushroom/Earthy/Fungal Odor [2]: 27.30%
IC50 [4]: > 600 µM
% Inhibition [4]: 30.14%
% Inhibition [10]: 45%

CCC=CCCC=CC=O [nona-2,6-dienal]
% Earthy/Moss Odor [1]: 65.40%
% Inhibition [10]: 80%
IC50 [10]: 156 µM
% Remaining in human sensory tests [3]: 67%

CC(=O)OCCc1ccccc1 [phenyl ethyl acetate]
% Earthy/Moss Odor Remaining [1, 13]: 97.10%
% Earthy/Moss Odor Remaining [1, 14]: 65.80%
% Earthy/Moss Odor [1]: 35.30%
% Remaining in human sensory tests [3]: 47* %

Cc1ccc(C(C)C)c(O)c1 [thymol, 5-Methyl-2-(propan-2-yl)phenol]
% Earthy/Moss Odor [1]: 54.70%
% Inhibition [10]: 100%
IC50 [10]: 107 µM
% Remaining in human sensory tests [3]: 53%

— patent US20230233425A1, “USE OF VOLATILE COMPOSITIONS TO LIMIT OR ELIMINATE THE PERCEPTION OF MALODOR” (Firmenich SA, priority 2017, published 2023)
